Measured values published in paper PMC4059350 (DNA repair, 2014).
Changes are numbered by the printed parent chain.

Assays:
Msh2-Msh3 [1] = molecular target: T1, Msh2-Msh3 (Saccharomyces cerevisiae, UniProt P25336+P25847); test: ATPγS titration into steady-state coupled ATPase assay; type: biochemical
T1 sequence (P25847 1-964): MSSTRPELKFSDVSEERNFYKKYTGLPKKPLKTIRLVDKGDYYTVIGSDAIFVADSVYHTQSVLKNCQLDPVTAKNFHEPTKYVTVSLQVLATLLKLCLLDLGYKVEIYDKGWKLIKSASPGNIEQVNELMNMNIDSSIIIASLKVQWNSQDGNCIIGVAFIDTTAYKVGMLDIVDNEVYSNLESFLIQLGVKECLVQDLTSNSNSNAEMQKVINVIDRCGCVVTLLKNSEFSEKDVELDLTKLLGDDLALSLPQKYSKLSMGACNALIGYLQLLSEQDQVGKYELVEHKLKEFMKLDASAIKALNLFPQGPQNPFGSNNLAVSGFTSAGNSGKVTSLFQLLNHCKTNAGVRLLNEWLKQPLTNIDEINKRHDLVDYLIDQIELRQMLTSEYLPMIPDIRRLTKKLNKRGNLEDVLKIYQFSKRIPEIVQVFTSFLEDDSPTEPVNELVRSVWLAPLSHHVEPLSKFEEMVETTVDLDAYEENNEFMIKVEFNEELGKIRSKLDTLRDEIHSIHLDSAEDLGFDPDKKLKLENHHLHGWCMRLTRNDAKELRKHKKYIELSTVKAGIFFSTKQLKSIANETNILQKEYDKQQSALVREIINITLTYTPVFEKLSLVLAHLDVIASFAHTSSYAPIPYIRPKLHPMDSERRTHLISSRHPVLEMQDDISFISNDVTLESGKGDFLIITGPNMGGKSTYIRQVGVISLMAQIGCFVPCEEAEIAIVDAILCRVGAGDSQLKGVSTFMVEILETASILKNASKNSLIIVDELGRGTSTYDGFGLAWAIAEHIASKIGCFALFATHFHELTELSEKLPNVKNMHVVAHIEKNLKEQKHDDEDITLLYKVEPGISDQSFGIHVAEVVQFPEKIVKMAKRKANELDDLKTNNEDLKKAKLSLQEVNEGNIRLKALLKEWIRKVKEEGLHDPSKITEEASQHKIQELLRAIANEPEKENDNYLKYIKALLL
T1 sequence (P25336 1-1018): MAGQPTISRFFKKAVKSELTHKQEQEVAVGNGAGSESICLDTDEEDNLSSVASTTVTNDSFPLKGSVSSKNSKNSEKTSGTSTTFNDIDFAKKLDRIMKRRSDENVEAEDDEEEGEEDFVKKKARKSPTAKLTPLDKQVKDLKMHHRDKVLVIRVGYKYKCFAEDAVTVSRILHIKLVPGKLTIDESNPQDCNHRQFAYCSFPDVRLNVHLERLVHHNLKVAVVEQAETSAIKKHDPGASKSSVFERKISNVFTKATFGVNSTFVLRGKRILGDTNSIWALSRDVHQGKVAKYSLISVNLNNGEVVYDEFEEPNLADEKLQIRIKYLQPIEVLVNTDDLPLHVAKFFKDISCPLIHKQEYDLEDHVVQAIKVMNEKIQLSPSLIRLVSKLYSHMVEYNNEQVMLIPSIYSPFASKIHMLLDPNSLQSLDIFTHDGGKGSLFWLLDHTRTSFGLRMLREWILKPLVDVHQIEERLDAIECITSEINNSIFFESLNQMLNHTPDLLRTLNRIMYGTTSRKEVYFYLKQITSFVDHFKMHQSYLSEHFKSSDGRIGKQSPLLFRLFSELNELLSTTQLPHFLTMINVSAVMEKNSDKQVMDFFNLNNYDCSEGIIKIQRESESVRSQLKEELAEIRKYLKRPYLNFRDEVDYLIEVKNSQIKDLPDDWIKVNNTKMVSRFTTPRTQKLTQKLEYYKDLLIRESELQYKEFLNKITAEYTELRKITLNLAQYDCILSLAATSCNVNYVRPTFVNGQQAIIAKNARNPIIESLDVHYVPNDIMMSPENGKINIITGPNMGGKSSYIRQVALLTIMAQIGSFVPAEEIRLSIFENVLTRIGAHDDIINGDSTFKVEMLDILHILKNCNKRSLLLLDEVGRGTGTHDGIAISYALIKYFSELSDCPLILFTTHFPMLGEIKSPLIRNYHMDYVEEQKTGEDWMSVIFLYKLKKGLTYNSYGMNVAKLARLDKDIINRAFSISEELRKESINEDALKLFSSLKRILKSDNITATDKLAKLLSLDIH

Msh2-Msh3 [2] = molecular target: T2, Msh2-Msh3 (Saccharomyces cerevisiae, UniProt P25336+P25847, P25336:Y942A); test: as above; type: biochemical
T2 sequence (P25847 1-964): T1 sequence (P25847 1-964)
T2 sequence (P25336 1-1018 Y942A): T1 sequence (P25336 1-1018) with Y942A

Msh2-Msh3 [3] = molecular target: T1, Msh2-Msh3; test: nitrocellulose filter binding, competition with […]-ATPγS after ADP pre-binding; settings: no DNA; 0.5 mM ADP, 8 μM ATPγS, 50 nM protein

| fraction of ATPγS bound relative to no ADP, 30 s (Msh2-Msh3 [3]) | SMILES | IC50 (Msh2-Msh3 [1]) | IC50 (Msh2-Msh3 [2]) |
| --- | --- | --- | --- |
| – | Nc1ncnc2c1ncn2[C@@H]1O[C@H](CO[P@](=O)(O)O[P@](=O)(O)O[P@@](=O)(O)S)[C@@H](O)[C@H]1O [ATPγS] | 6.3 mM | 0.8 mM |
| 0.54 ± 0.15 fraction | Nc1ncnc2c1ncn2[C@@H]1O[C@H](COP(=O)(O)OP(=O)(O)O)[C@@H](O)[C@H]1O [ADP] | – | – |
